Data as given in patent US20100056565A1, “Heterocyclic Derivatives as M3 Muscarinic Receptors” (priority 2007, published 2010).
Where a name gives a salt, the structure may show the parent alone. Read-outs that look alike come from different tables or passages of the source.

Target: T1, Recombinant human M3 receptor (Homo sapiens, UniProt P20309)
T1 construct: expressed in transfected cells; host or cells: CHO-K1 cells (membranes)
Assay: biochemical
Type: binding
Protocol: Recombinant human M3 receptor was expressed in CHO-K1 cells. Cell membranes were prepared and binding of [3H]-N-methyl scopolamine ([3H]-NMS) and compounds was assessed by a scintillation proximity assay (SPA). The incubation time was 16 hours at room temperature in the presence of 1% (v/v) DMSO. The assay was performed in white 96 well clear-bottomed NBS plates (Corning). Prior to the assay, the CHO cell membranes containing M3 receptor were coated onto SPA WGA (Wheat germ agglutinin) beads (GE Healthcare). Non specific binding was determined in the presence of 1 μM Atropine.
Radioactivity was measured on a Microbeta scintillation counter (PerkinElmer) using a 3H protocol with a 2 minutes per well read time. […] Concentration dependent inhibition of [3H]-NMS binding by compounds was expressed as pIC50.

[1] = SPA format, read-out: M3 Ki (SPA format)

T1 sequence (P20309 whole entry): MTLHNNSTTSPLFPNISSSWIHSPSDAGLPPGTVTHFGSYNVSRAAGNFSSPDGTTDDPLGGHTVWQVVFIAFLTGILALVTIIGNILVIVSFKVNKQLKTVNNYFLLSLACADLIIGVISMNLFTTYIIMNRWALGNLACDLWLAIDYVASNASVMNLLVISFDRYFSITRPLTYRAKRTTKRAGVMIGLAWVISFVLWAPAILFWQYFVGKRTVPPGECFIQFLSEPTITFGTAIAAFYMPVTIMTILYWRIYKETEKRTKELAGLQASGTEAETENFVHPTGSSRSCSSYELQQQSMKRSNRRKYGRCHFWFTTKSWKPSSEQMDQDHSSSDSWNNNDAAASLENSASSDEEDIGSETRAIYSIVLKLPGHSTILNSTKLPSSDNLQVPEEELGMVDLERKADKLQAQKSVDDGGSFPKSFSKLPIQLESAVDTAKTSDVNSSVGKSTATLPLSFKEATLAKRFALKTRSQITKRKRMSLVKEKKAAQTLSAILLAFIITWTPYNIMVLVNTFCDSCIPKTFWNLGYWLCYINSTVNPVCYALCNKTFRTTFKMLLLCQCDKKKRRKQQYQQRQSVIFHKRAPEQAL

SMILES	Ki [1]	Ki (M3, SPA format assay, read-out: Ki in the SPA format assay)
OC(c1ccccc1)(c1cc(C[N+]23CCC(CC2)C(COc2ccccc2)C3)on1)C1CCCCC1 (single isomer, unassigned) [Example 91]	< 5 nM	
OC(c1ccccc1)(c1ccccc1)c1ncc(C[N+]23CCC(CC2)[C@@H](Oc2cc(Cl)cc(Cl)c2)C3)o1 [Example 74, (R)-3-(3,5-dichloro-phenoxy)-1-[2-(hydroxy-diphenyl-methyl)-oxazol-5-ylmethyl]-1-azonia-bicyclo[2.2.2]octane; bromide]	> 20 nM	
O[C@](c1ccccc1)(c1ncc(C[N+]23CCC(CC2)C(COc2ccc(F)cc2)C3)o1)C1CCCCC1 (single isomer, unassigned) [Example 82]	< 5 nM	
O=C(N[C@@H]1C[N+]2(Cc3cnc([C@](O)(c4ccccc4)C4CCCCC4)o3)CCC1CC2)c1ccccc1 [Example 15, (S)-3-Benzoylamino-1-[2-((R)-cyclohexyl-hydroxy-phenyl-methyl)-oxazol-5-ylmethyl]-1-azonia-bicyclo[2.2.2]octane; formate]	< 5 nM	
OC(c1ccccc1)(c1ccccc1)c1ncc(C[N+]23CCC(CC2)[C@@H](Sc2ccc(F)c(F)c2)C3)o1 [Example 99, (R)-3-(3,4-Difluoro-phenylsulfanyl)-1-[2-(hydroxy-diphenyl-methyl)-oxazol-5-ylmethyl]-1-azonia-bicyclo[2.2.2]octane; bromide]	< 5 nM	
OC(c1ccccc1)(c1cc(C[N+]23CCC(CC2)[C@@H](SCc2ccccc2)C3)on1)C1CCCCC1 (single isomer, unassigned) [Example 126]	< 5 nM	
C=C(C)CO[C@H]1C[N+]2(Cc3cnc([C@](O)(c4ccccc4)C4CCCCC4)o3)CCC1CC2 [Example 112, (R)-1-[2-((R)—Cyclohexyl-hydroxy-phenyl-methyl)-oxazol-5-ylmethyl]-3-(2-methyl-allyloxy)-1-azonia-bicyclo[2.2.2]octane; bromide]	< 5 nM	
O[C@](c1ccccc1)(c1ncc(C[N+]23CCC(CC2)[C@@H](Oc2ccc(F)cc2)C3)o1)C1CCCCC1 [Example 66, (R)-1-[2-((R)—Cyclohexyl-hydroxy-phenyl-methyl)-oxazol-5-ylmethyl]-3-(4-fluoro-phenoxy)-1-azonia-bicyclo[2.2.2]octane; bromide]	< 5 nM	0.09 nM
Cc1ccc(O[C@H]2C[N+]3(Cc4cnc([C@](O)(c5ccccc5)C5CCCCC5)o4)CCC2CC3)cc1Cl [Example 60, (R)-3-(3-Chloro-4-methyl-phenoxy)-1-[2-((R)-cyclohexyl-hydroxy-phenyl-methyl)-oxazol-5-ylmethyl]-1-azonia-bicyclo[2.2.2]octane; bromide]	< 5 nM	
O[C@](c1ccccc1)(c1ncc(C[N+]23CCC(CC2)[C@@H](Oc2cccc(F)c2)C3)o1)C1CCCCC1 [Example 67, (R)-1-[2-((R)—Cyclohexyl-hydroxy-phenyl-methyl)-oxazol-5-ylmethyl]-3-(3-fluoro-phenoxy)-1-azonia-bicyclo[2.2.2]octane; bromide]	< 5 nM	
O[C@](c1ccccc1)(c1ncc(C[N+]23CCC(CC2)[C@@H](OCc2ccc(C(F)(F)F)cc2)C3)o1)C1CCCCC1 [Example 33, (R)-1-[2-((R)—Cyclohexyl-hydroxy-phenyl-methyl)-oxazol-5-ylmethyl]-3-(4-trifluoromethyl-benzyloxy)-1-azonia-bicyclo[2.2.2]octane; bromide]	< 5 nM	
C=CCOCC1C[N+]2(Cc3cnc([C@](O)(c4ccccc4)C4CCCCC4)o3)CCC1CC2 (single isomer, unassigned) [Example 90, formate]	5 to 20 nM	
O[C@](c1ccccc1)(c1ncc(C[N+]23CCC(CC2)C(c2ccccc2)C3)o1)C1CCCCC1 (stereo partly drawn) [Example 88, 1-[2-((R)—Cyclohexyl-hydroxy-phenyl-methyl)-oxazol-5-ylmethyl]-3-phenyl-1-azonia-bicyclo[2.2.2]octane; bromide]	5 to 20 nM	
OC(c1ccccc1)(c1ccccc1)c1noc(C[N+]23CCC(CC2)[C@@H](SC2CCCCC2)C3)n1 [Example 138, (R)-3-Cyclohexylsulfanyl-1-[3-(hydroxy-diphenyl-methyl)-[1,2,4]oxadiazol-5-ylmethyl]-1-azonia-bicyclo[2.2.2]octane; chloride]	< 5 nM	
OC(c1ccccc1)(c1noc(C[N+]23CCC(CC2)[C@@H](CSc2ccccc2)C3)n1)C1CCCCC1 (single isomer, unassigned) [Example 132]	< 5 nM	
OC(c1ccccc1)(c1ccccc1)c1ncc(C[N+]23CCC(CC2)[C@@H](COc2ccccc2)C3)o1 [Example 26, (R)-1-[2-(Hydroxy-diphenyl-methyl)-oxazol-5-ylmethyl]-3-phenoxymethyl-1-azonia-bicyclo[2.2.2]octane; bromide]	< 5 nM	

SMILES	Ki [1]	Ki (M3, SPA format assay, read-out: Ki in the SPA format assay)
O[C@](c1ccccc1)(c1ncc(C[N+]23CCC(CC2)[C@@H](OCc2cccc(F)c2)C3)o1)C1CCCCC1 [Example 35, (R)-1-[2-((R)-cyclohexyl-hydroxy-phenyl-methyl)-oxazol-5-ylmethyl]-3-(3-fluoro-benzyloxy)-1-azonia-bicyclo[2.2.2]octane; formate]	< 5 nM	
OC(c1ccccc1)(c1ccccc1)c1ncc(C[N+]23CCC(CC2)[C@@H](Oc2ccc(F)c(Cl)c2)C3)o1 [Example 76, (R)-3-(3-chloro-4-fluoro-phenoxy)-1-[2-(hydroxy-diphenyl-methyl)-oxazol-5-ylmethyl]-1-azonia-bicyclo[2.2.2]octane; bromide]	< 5 nM	
O[C@](c1ccccc1)(c1ncc(C[N+]23CCC(CC2)[C@@H](OCc2ccc(Cl)cc2)C3)o1)C1CCCCC1 [Example 23, (R)-3-(4-Chloro-benzyloxy)-1-[2-((R)-cyclohexyl-hydroxy-phenyl-methyl)-oxazol-5-ylmethyl]-1-azonia-bicyclo[2.2.2]octane; bromide]	< 5 nM	
OC(c1ccccc1)(c1ncc(C[N+]23CCC(CC2)[C@@H](OCc2ccccc2)C3)s1)C1CCCCC1 (stereo partly drawn) [Example 29, (R)-3-Benzyloxy-1-[2-(cyclohexyl-hydroxy-phenyl-methyl)-thiazol-5-ylmethyl]-1-azonia-bicyclo[2.2.2]octane; bromide]	< 5 nM	
Cc1ccc(O[C@H]2C[N+]3(Cc4nc(C(O)(c5ccccc5)C5CCCCC5)no4)CCC2CC3)cc1Cl (single isomer, unassigned) [Example 129]	< 5 nM	
Cc1ccc(O[C@H]2C[N+]3(Cc4cnc(C(O)(c5ccccc5)c5ccccc5)o4)CCC2CC3)cc1 [Example 58, (R)-1-[2-(Hydroxy-diphenyl-methyl)-oxazol-5-ylmethyl]-3-p-tolyloxy-1-azonia-bicyclo[2.2.2]octane; bromide]	< 5 nM	
OC(c1ccccc1)(c1ccccc1)c1ncc(C[N+]23CCC(CC2)[C@@H](Sc2cccc(F)c2)C3)o1 [Example 98, (R)-3-(3-Fluoro-phenylsulfanyl)-1-[2-(hydroxy-diphenyl-methyl)-oxazol-5-ylmethyl]-1-azonia-bicyclo[2.2.2]octane; bromide]	< 5 nM	
OC(c1ccccc1)(c1ccccc1)c1ncc(C[N+]23CCC(CC2)[C@@H](Oc2ccsc2)C3)o1 [Example 114, (R)-1-[2-(Hydroxy-diphenyl-methyl)-oxazol-5-ylmethyl]-3-(thiophen-3-yloxy)-1-azonia-bicyclo[2.2.2]octane; bromide]	5 to 20 nM	
C=CCO[C@H]1C[N+]2(Cc3cnc([C@](O)(c4ccccc4)C4CCCCC4)o3)CCC1CC2 [Example 51, (R)-3-allyloxy-1-[2-((R)-cyclohexyl-hydroxy-phenyl-methyl)-oxazol-5-ylmethyl]-1-azonia-bicyclo[2.2.2]octane; formate]	< 5 nM	
O[C@](c1ccccc1)(c1nnc(C[N+]23CCC(CC2)[C@@H](OCc2ccc(F)cc2)C3)o1)C1CCCCC1 [Example 140, (R)-1-[5-((R)—Cyclohexyl-hydroxy-phenyl-methyl)-[1,3,4]oxadiazol-2-ylmethyl]-3-(4-fluoro-benzyloxy)-1-azonia-bicyclo[2.2.2]octane; bromide]	< 5 nM	
O[C@](c1ccccc1)(c1ncc(C[N+]23CCC(CC2)[C@@H](OCc2ccccc2)C3)o1)C1CCCCC1 [Example 12, (R)-3-(Benzyloxy)-1-[2-(R)-cyclohexyl-hydroxy-phenyl-methyl)-oxazol-5-ylmethyl]-1-azonia-bicyclo[2.2.2]octane; bromide]	< 5 nM	
OC(c1ccccc1)(c1ccccc1)c1noc(C[N+]23CCC(CC2)[C@@H](Oc2cccc(Cl)c2)C3)n1 [Example 117, (R)-3-(3-Chloro-phenoxy)-1-[3-(hydroxy-diphenyl-methyl)-[1,2,4]oxadiazol-5-ylmethyl]-1-azonia-bicyclo[2.2.2]octane; chloride]	< 5 nM	
O[C@](c1ccccc1)(c1ncc(C[N+]23CCC(CC2)[C@H](COc2ccccc2)C3)o1)C1CCCCC1 [Example 24, (S)-1-[2-((R)—Cyclohexyl-hydroxy-phenyl-methyl)-oxazol-5-ylmethyl]-3-phenoxymethyl-1-azonia-bicyclo[2.2.2]octane; bromide]	< 5 nM	
OC(c1ccccc1)(c1ccccc1)c1ncc(C[N+]23CCC(CC2)[C@@H](Sc2ccccc2)C3)o1 [Example 68, 1-[2-(Hydroxy-diphenyl-methyl)-oxazol-5-ylmethyl]-3-phenylsulfanyl-1-azonia-bicyclo[2.2.2]octane; bromide]	< 5 nM	
OC(c1ccccc1)(c1ccccc1)c1ncc(C[N+]23CCC(CC2)C(COc2ccc(F)cc2)C3)o1 (single isomer, unassigned) [Example 86, 3-(4-Fluoro-phenoxymethyl)-1-[2-(hydroxy-diphenyl-methyl)-oxazol-5-ylmethyl]-1-azonia-bicyclo[2.2.2]octane; bromide]	5 to 20 nM	
